Results taken from the supplement of paper PMC8671470.
± gives the standard deviation of the averaged measurements.

Assays:
[1] = system: HL-60; assay: cell viability (% survival relative to DMSO control); higher = less cytotoxic; details: 72 h
How it was run: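 For each screen, HL-60 cells in RPMI 1640 with 10% FBS carried either DMSO or 100 nM of one of three metabolic inhibitors while the full library was applied at five tenfold concentrations, 1–10,000 nM, in duplicate. Plates were 384-well and were kept 72 h at 37 °C, 5% CO2. Viability, measured by CellTiter-Glo, was normalised to wells with DMSO and with 10 μM proteasome inhibitor. Where area under the curve appears, it was fitted by four-parameter log-logistic models in drc and PharmacoGx.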

[2] = system: K-562; assay: cell viability (% survival relative to DMSO control, bortezomib = 0%); higher = less cytotoxic; details: 72 h
How it was run: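 Fifteen myeloid leukaemia cell lines (10 AML, 5 CML) were seeded at a density titrated to the linear growth range. They went into 384-well plates with compounds pre-printed at 1, 10, 100, 1000 or 10000 nM in duplicate. After 72 h at 37 °C with 5% CO2, viability was read by CellTiter-Glo luminescence. Values are percent survival, with vehicle set to 100% and a 10 µM positive control to 0%, averaged over the duplicates.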

[3] = 0.001 µM, co-treatment: AZD3965 100 nM
[4] = 0.001 µM, co-treatment: DMSO vehicle
[5] = 0.001 µM, co-treatment: GSK2194069 100 nM
[6] = 0.001 µM, co-treatment: pictilisib 100 nM
[7] = 0.01 µM, co-treatment: AZD3965 100 nM
[8] = 0.01 µM, co-treatment: DMSO vehicle
[9] = 0.01 µM, co-treatment: GSK2194069 100 nM
[10] = 0.01 µM, co-treatment: pictilisib 100 nM
[11] = 0.1 µM, co-treatment: AZD3965 100 nM
[12] = 0.1 µM, co-treatment: DMSO vehicle
[13] = 0.1 µM, co-treatment: GSK2194069 100 nM
[14] = 0.1 µM, co-treatment: pictilisib 100 nM
[15] = 1 µM, co-treatment: AZD3965 100 nM
[16] = 1 µM, co-treatment: DMSO vehicle
[17] = 1 µM, co-treatment: GSK2194069 100 nM
[18] = 1 µM, co-treatment: pictilisib 100 nM
[19] = 10 µM, co-treatment: AZD3965 100 nM
[20] = 10 µM, co-treatment: DMSO vehicle
[21] = 10 µM, co-treatment: GSK2194069 100 nM
[22] = 10 µM, co-treatment: pictilisib 100 nM

Row | Structure (SMILES) | cell viability [1, 3] [%] | cell viability [1, 4] [%] | cell viability [1, 5] [%] | cell viability [1, 6] [%] | cell viability [1, 7] [%] | cell viability [1, 8] [%] | cell viability [1, 9] [%] | cell viability [1, 10] [%] | cell viability [1, 11] [%] | cell viability [1, 12] [%] | cell viability [1, 13] [%] | cell viability [1, 14] [%] | cell viability [1, 15] [%] | cell viability [1, 16] [%] | cell viability [1, 17] [%] | cell viability [1, 18] [%] | cell viability [1, 19] [%] | cell viability [1, 20] [%] | cell viability [1, 21] [%] | cell viability [1, 22] [%] | cell viability ([2]; 1 nM) [%] | cell viability ([2]; 10 nM) [%] | cell viability ([2]; 100 nM) [%] | cell viability ([2]; 1000 nM) [%] | cell viability ([2]; 10000 nM) [%]
1 | CCCCN1C[C@H](O)[C@@H](O)[C@H](O)[C@H]1CO [Miglustat] | 106 ± 3.3 | 101 ± 5.3 | 91.5 ± 4.9 | 104 ± 2.5 | 98.2 ± 7.3 | 101 ± 7.8 | 94.4 ± 10 | 109 ± 10 | 106 ± 6.2 | 103 ± 5.5 | 104.5 ± 0.19 | 112 ± 28 | 96.6 ± 2.6 | 98.7 ± 2 | 99.5 ± 5.5 | 107 ± 3.2 | 100 ± 4.3 | 98 ± 1.2 | 101 ± 8.5 | 101 ± 4.7 | 94.4 | 95.8 | 94.4 | 99.4 | 89.9
2 | CN(C)C(=O)[C@H](O)[C@H](Cc1ccccc1)NC(=O)c1cc2cc(Cl)ccc2[nH]1 | 105 ± 5.8 | 101 ± 1.7 | 102 ± 4.8 | 97.4 ± 5.6 | 101 ± 3.7 | 102.3 ± 0.13 | 110 ± 4.8 | 107 ± 14 | 98.4 ± 2.1 | 95.7 ± 11 | 101 ± 3.4 | 93.8 ± 2.3 | 101 ± 5.3 | 100 ± 3 | 100 ± 4.2 | 96 ± 1.2 | 100.2 ± 0.61 | 110 ± 5.4 | 99.4 ± 8.9 | 97.3 ± 7 | 79 | 84.3 | 94.3 | 105 | 79
3 | COc1ccc2c(C(=S)N(C)CC(=O)O)cccc2c1C(F)(F)F [Tolrestat] | 97.3 ± 1.8 | 96 ± 0.68 | 99 ± 1.9 | 95.7 ± 3 | 106 ± 5.3 | 106 ± 3.4 | 104.6 ± 0.97 | 104 ± 8.2 | 104 ± 3.8 | 104 ± 2.6 | 97.5 ± 1.3 | 96.8 ± 5.6 | 97.9 ± 4.6 | 99.23 ± 0.18 | 94.1 ± 4.1 | 88.1 ± 8.6 | 98.253 ± 0.033 | 103.9 ± 0.94 | 97.1 ± 8.5 | 100 ± 2 | 95.4 | 104 | 87.4 | 99.8 | 105
4 | O=C1O[C@H]([C@@H](O)CO)C(O)=C1O [Vitamin C (ascorbate)] | 89.82 ± 0.29 | 102 ± 1.1 | 88.6 ± 17 | 80.3 ± 1.6 | 94.8 ± 6.4 | 95.8 ± 7.2 | 100 ± 1.1 | 81.6 ± 28 | 101 ± 2 | 98.77 ± 0.68 | 96.8 ± 6.4 | 96.3 ± 3.5 | 103 ± 4.3 | 103 ± 2.7 | 101 ± 4.3 | 95.46 ± 0.63 | 67.9 ± 35 | 88.3 ± 13 | 95.5 ± 1.6 | 75.2 ± 19 | 99.2 | 96.3 | 92.8 | 104 | 89.4
5 | O=c1cc(-c2ccccc2)oc2cc(O)c(O)c(O)c12 [Baicalein] | 99.72 ± 0.59 | 102.7 ± 0.15 | 97.26 ± 0.92 | 99.21 ± 0.82 | 100 ± 5.5 | 102 ± 1.9 | 102 ± 2.2 | 106 ± 2.4 | 103 ± 4.9 | 101 ± 4.4 | 93.5 ± 4.6 | 98.9 ± 2.1 | 97.6 ± 1.2 | 98.895 ± 0.092 | 98.1 ± 5.9 | 106 ± 1.5 | 101.4 ± 0.93 | 102 ± 7.6 | 99.8 ± 4 | 89.5 ± 7.1 | 104 | 104 | 102 | 108 | 45.6
